Measurements: BindingDB's records for doi:10.1124/jpet.104.081711 (Taisho Pharmaceutical, 2005)
pKi: −log10 of the molar value.

How the values were obtained:
[1] = target: 5-hydroxytryptamine receptor 2B (Homo sapiens, UniProt P41595)
[2] = target: T1, 5-hydroxytryptamine receptor 1A (Homo sapiens, UniProt P08908)
T1 sequence (P08908 whole entry): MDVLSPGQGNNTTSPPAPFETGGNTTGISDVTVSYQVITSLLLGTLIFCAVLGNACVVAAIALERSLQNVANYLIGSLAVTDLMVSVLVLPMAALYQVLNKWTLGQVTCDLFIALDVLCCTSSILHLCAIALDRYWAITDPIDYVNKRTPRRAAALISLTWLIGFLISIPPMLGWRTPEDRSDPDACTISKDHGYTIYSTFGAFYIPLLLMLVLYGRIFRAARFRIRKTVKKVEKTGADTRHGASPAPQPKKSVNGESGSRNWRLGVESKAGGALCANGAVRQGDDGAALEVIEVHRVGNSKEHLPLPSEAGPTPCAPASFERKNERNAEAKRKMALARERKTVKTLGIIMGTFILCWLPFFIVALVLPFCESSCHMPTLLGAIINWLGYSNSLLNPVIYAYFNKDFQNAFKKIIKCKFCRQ

[3] = target: Melanin-concentrating hormone receptor 1 (Homo sapiens, UniProt Q99705)
Melanin-concentrating hormone receptor 1, sequence (Q99705 as listed by the source): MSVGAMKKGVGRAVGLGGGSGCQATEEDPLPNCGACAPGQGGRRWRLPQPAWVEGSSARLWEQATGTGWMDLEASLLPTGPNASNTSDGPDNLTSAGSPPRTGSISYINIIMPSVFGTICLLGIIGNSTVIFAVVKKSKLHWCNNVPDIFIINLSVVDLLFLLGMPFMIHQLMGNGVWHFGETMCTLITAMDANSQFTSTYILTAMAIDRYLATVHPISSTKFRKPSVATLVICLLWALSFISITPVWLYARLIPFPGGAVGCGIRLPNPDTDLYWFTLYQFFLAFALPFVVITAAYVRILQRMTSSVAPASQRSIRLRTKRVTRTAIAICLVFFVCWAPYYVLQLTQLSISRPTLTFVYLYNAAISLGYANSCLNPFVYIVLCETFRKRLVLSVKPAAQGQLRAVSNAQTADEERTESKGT

5-hydroxytryptamine receptor 2B, sequence (P41595 whole entry): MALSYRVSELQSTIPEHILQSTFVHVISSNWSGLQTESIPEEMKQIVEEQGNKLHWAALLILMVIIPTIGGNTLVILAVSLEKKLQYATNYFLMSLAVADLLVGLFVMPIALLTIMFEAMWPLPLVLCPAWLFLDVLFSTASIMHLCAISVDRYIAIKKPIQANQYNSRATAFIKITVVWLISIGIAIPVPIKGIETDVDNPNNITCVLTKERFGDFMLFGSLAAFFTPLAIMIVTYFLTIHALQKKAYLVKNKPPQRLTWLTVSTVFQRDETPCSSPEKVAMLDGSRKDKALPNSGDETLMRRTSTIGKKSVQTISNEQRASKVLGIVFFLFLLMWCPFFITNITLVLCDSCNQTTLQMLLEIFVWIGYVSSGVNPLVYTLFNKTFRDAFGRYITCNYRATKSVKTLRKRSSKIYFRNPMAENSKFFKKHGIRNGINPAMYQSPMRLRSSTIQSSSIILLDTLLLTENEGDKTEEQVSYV

CN(C)c1nc(N[C@H]2CC[C@@H](NC(=O)c3ccc(F)c(F)c3)CC2)nc2ccccc12 [ATC0175]
pKi [1]: 8.02 | pKi [2]: 7.77

CN(C)c1nc(N[C@H]2CC[C@@H](NCCc3ccc(Br)cc3OC(F)(F)F)CC2)nc2ccccc12 [CAS_510732-84-0]
pKi [1]: 6.58 | pKi [3]: 7.80
